From patent US8426386B2, “NK1 receptor antagonist composition” (Lion Corporation, priority 2006, dated 2013)

Tested on: NK1 receptor
Assay: NK1 Receptor Antagonism Assay (calcium imaging, substance P stimulation)
Type: cell-based, human
Settings: for Efficacy (NK1 receptor antagonistic activity grade): substance P 100 μM; for effect as the NK1 receptor antagonist (in words): summary of Table 1
Source text: [Performance Evaluation Test] NK1 Receptor Antagonism Assay
In this test, maltose, maltotriose, maltotetraose, maltopentaose, maltohexaose and maltoheptaose were purchased from SIGMA, isomaltose, isomaltotriose, isomaltotetraose, isomaltopentaose, isomaltohexaose and isomaltoheptaose were purchased from Seikagaku Corporation, and four types of oligosaccharides-1-kestose, fructofranosylnystose, nystose and galactotetraose—were purchased from Wako Pure Chemicals Industries Ltd. Each oligosaccharide was diluted with saline, and used.
In order to transiently express a cloned human NK1 receptor in HEK293, cDNA of the human NK1 receptor was cut out from pCDM8 (Invitrogen), and cloned in an expression vector pCDM9 derived by inserting an ampicillin resistant gene (BLUESCRIPT, nucleotides 1973 to 2964 from SK+) at a SacII site.
HEK293 cells were seeded at 1×10^5 cells in a Falcon dish (diameter: 3.5 cm) using α-MEM medium (Gibco) containing 10% bovine fetal serum, and cultured in a 5% CO2 incubator at 37° C. overnight. Then, 20 μg of the expression vector was transfected using Transfection Reagent FuGENE6 (Roche) according to attached instructions, and the transfectants were incubated at 37° C. for 3 days and assayed by a calcium imaging method.
According to Renganathan et al's method (Renganathan M et al., J. Neurophysiol., 84(2), […] (2000)), nerve cells were dispersed and isolated from spinal dorsal root ganglion in a wild type mouse, and 1×10^5 thereof were seeded in a 24-well plate coated with poly-L-lysine. The cells were cultured in 90% DMEM medium (GIBCO) supplemented with 10% bovine fetal serum, 2 mM glutamine, 100 U/mL of penicillin/streptomycin, 100 ng/mL of NGF (SIGMA) and 5 μM cytosine arabinoside (SIGMA) under 5% CO2 at 37° C. The cells were cultured for 1 to 3 weeks, and subsequently subjected to a calcium imaging analysis. A half of the nerve cells was identified to be positive for the NK1 receptor by staining the nerve cells derived from spinal dorsal root ganglion in the wild type mouse with an anti-NK1 receptor antibody (supplied from CHEMICON International).
The cells which express the NK1 receptor transiently or constitutively were subjected to measurement using a high resolution digital B/W cooling CCD camera (ORCA supplied from Hamamatsu Photonics K.K.), and their images were analyzed using an analysis software (AQUA COSMOS supplied from Hamamatsu Photonics K.K.). When the cells were labeled for calcium, Fluo4-AM (supplied from Molecular Probe) was used as a calcium sensitive dye. Fifty μg of Fluo4-AM was dissolved in 400 μL of DMSO in a vial, 4 μL of Pluronic F-127 (Molecular Probe) was added and mixed, and then 4 mL of OPTI-MEM (GIBCO) was added thereto. The calcium sensitive dye solution thus prepared was added to the cells, which were then incubated at 37° C. for 60 minutes. An agonist, an antagonist and samples to be evaluated were prepared at concentrations which were 10 times higher than assay concentrations, and analyzed by adding a one tenth volume of the cell suspension upon analysis. All reagents and an assay temperature were kept at 37° C. For the cells transfected transiently, YFP reporter DNA fluorescence (excitation: 490 nm) was used for identifying the transfected cells. Upon measurement, a fluorescence intensity obtained by initially imaging the untreated cells was made an initial value. After passing one minute, a change of calcium/fluorescence intensity in the sample to be evaluated at the desired concentration was monitored with an interval of one second before and after the addition (2 to 5 minutes). Subsequently, substance P was added, and immediately after (2 to 5 minutes), an antagonistic activity of the sample to be evaluated was determined by monitoring the change of intracellular calcium concentrations as the change of the fluorescence intensities with the interval of one second. […]

[1] = evaluated concentration 0.1 ppm
[2] = evaluated concentration 100 ppm
[3] = evaluated concentration 1000 ppm

effect as the NK1 receptor antagonist (in words)	Molecule	Efficacy (NK1 receptor antagonistic activity grade) [1]	Efficacy (NK1 receptor antagonistic activity grade) (evaluated concentration 1 ppm)	Efficacy (NK1 receptor antagonistic activity grade) (evaluated concentration 10 ppm)	Efficacy (NK1 receptor antagonistic activity grade) [2]	Efficacy (NK1 receptor antagonistic activity grade) [3]
high effect	OC[C@H]1O[C@H](O[C@H]2[C@H](O)[C@@H](O)C(O)O[C@@H]2CO)[C@H](O)[C@@H](O)[C@@H]1O (mixture of isomers) [Maltose, maltose]	D (Ineffective: the antagonistic activity was less than 65%, or the stimulating or agonistic activity of the sample was strong.)	D (Ineffective: the antagonistic activity was less than 65%, or the stimulating or agonistic activity of the sample was strong.)	C (Slightly effective: the antagonistic activity was less than 65%, and a stimulating or agonistic activity of the sample was weak.)	C (Slightly effective: the antagonistic activity was less than 65%, and a stimulating or agonistic activity of the sample was weak.)	B (Effective: the antagonistic activity was 65% or more and less than 75% and the more excellent performance than in the positive control was shown.)
high effect	maltoheptaose	D (Ineffective: the antagonistic activity was less than 65%, or the stimulating or agonistic activity of the sample was strong.)	C (Slightly effective: the antagonistic activity was less than 65%, and a stimulating or agonistic activity of the sample was weak.)	C (Slightly effective: the antagonistic activity was less than 65%, and a stimulating or agonistic activity of the sample was weak.)	B (Effective: the antagonistic activity was 65% or more and less than 75% and the more excellent performance than in the positive control was shown.)	B (Effective: the antagonistic activity was 65% or more and less than 75% and the more excellent performance than in the positive control was shown.)
high effect	maltotriose	C (Slightly effective: the antagonistic activity was less than 65%, and a stimulating or agonistic activity of the sample was weak.)	C (Slightly effective: the antagonistic activity was less than 65%, and a stimulating or agonistic activity of the sample was weak.)	C (Slightly effective: the antagonistic activity was less than 65%, and a stimulating or agonistic activity of the sample was weak.)	B (Effective: the antagonistic activity was 65% or more and less than 75% and the more excellent performance than in the positive control was shown.)	A (Complete response: the antagonistic activity was 75% or more and much more excellent performance than in the positive control was shown.)

Molecule	effect as the NK1 receptor antagonist (in words)	Efficacy (NK1 receptor antagonistic activity grade) [1]	Efficacy (NK1 receptor antagonistic activity grade) (evaluated concentration 1 ppm)	Efficacy (NK1 receptor antagonistic activity grade) (evaluated concentration 10 ppm)	Efficacy (NK1 receptor antagonistic activity grade) [2]	Efficacy (NK1 receptor antagonistic activity grade) [3]
OC[C@H]1O[C@@](CO)(OC[C@@]2(OC[C@@]3(OC[C@@]4(O[C@H]5O[C@H](CO)[C@@H](O)[C@H](O)[C@H]5O)O[C@H](CO)[C@@H](O)[C@@H]4O)O[C@H](CO)[C@@H](O)[C@@H]3O)O[C@H](CO)[C@@H](O)[C@@H]2O)[C@@H](O)[C@@H]1O [Fructofranosylnystose, fructofranosylnystose, reference compound]	no NK1 receptor antagonistic activity was observed at all					D (Ineffective: the antagonistic activity was less than 65%, or the stimulating or agonistic activity of the sample was strong.)
